Laboratory results from patent US5104852A, “Method for the inhibition of the proliferation of cancer cells in a tumor sensitive to treatment with a selenodithiol by the injection into the tumor of a selenodithiol such as selenodiglutathione” (The Ohio State University, priority 1991, dated 1992).

Columns and labels:
human tumor cell lines = assay: Cell culture assay (microculture tetrazolium/MTT assay); assay type: cell-based
Source text: The purpose of the cell culture assay is a method for measuring at what concentration of the cancer treating agent will inhibit neoplastic cell division or protein synthesis, and thus cause the death of the neoplastic cells. The particular assay technique is a modification of that described by Mosmann, Jour. of Immunol. Meth., 65, 1983, pp. 55-63. The cell lines used for the in vitro assay are: […]
The plating density of each cell type used in the assay is set forth below: […]
The procedure followed involved adding for each cell type 200 microliters of the cell suspension at the concentration determined above, to each well of a 96-well plate. The plates were allowed to incubate for twenty four hours at 37° C. and humidified in the presence of a 5% CO2 atmosphere, whereupon 20 microliters of GSSeSG concentrations ranging from 10^-8 M to 10^-4 M were added to the wells located on the plate. A variety of concentrations of cycloheximide and adriamycin were utilized as a control. The resulting plates were incubated for six days at 37° C., humidified in a 5% CO2 atmosphere and on the final day of the assay, 20 μl were added to each well of [MTT 3-(4,5-dimethylthiazol-2-yl)-2,5-diphenyl tetrazolium bromide], obtained from Sigma Cat #M2128. The MTT is prepared by combining 5mg/ml of a phosphate buffered saline (PBS) solution. […] Upon completion, the optical density of each well was read on an elisa plate reader set at 570nm (test sample) and 630nm (for reference).
FIGS. 4 through 11 provide comparisons of the effects at increasing concentrations of adriamycin and GSSeSG as measured by variations in optical density of various cell solutions. […] Variations in optical density, measured by a spectrophotometer, are indicative of the level of cellular activity. […]

[1] = tested on: peripheral blood lymphocytes; assay: Sister Chromatid Exchange (mutagenicity); assay type: cell-based, human; conditions: FIG. 2, compared with selenite and selenomethionine
Source text: FIG. 2 describes the effect that GSSeSG has with respect to the mutagenicity of three selenium containing, cancer treating agents as a function of their respective concentrations. More particularly, the preferred selenodithiol, GSSeSG is contrasted with two other selenium containing compounds, selenite and selenomethionine in the treatment of peripheral blood lymphocytes, i.e., normal human cells taken from different sections of the body. […] As one in the art is aware, in the technique known as Sister Chromatid Exchange (SCE) the particular nucleotide components which comprise the DNA genetic code cross over to form cell mutations which lead to the birth and growth of rapidly dividing neoplastic cells.

[2] = tested on: DMBA (7,12-dimethylbenz(a)anthracene) induced tumors; assay: DMBA-induced tumors in rats, injection of agents (Table 1, FIG. 3); assay type: in vivo
Source text: The Table contrasts the results obtained by the desired dosage with the results obtained from four other groups of ten rats; the rats in each group being inoculated with cancer immunotoxins in differing dosages of both GSSeSG, retinol (HPR) and mixtures of each, as well as a control sample of […] which were not administered with cancer treating agents. All one hundred rats were inoculated with DMBA (7,12-dimethylbenz(a)anthracene) so as to induce cancer cell formation, which was then allowed to form tumors over a period of two months prior to testing. […] Thus, Table 1 clearly illustrates both the effectiveness of GSSeSG when utilized in the desired range of proportions and also the fact that even relatively small variations in excess of the crisis zone in its administration will cause severe damage to the host subject, while the proper range of dosages is substantially non-toxic to the treated host.

rat mammary tumor = assay: Direct injection into rat mammary tumor (FIG. 12, FIG. 13); assay type: in vivo
Experimental: The tumor was induced in each rat by the administration of 7,12-dimethylbenz(a)anthracene and allowed to proliferate to the predetermined sized range of 1.5 to 2.5 centimeters in diameter. The selenodiglutathione was injected at a level of 700 micrograms directly into the central region of the tumor mass fifteen times over the course of thirty days.
FIG. 13 illustrates a table comparing the volume changes of three rat mammary cancer tumors injected over time. The curve marked "C" represents the volume increase in a control tumor injected with eluate from the column but with no selenodithiol. Curves "L" and "H" represent cancer tumors injected according to different treatment schedules of selenodiglutathione. The "L" tumor received a dose of selenodiglutathione of 1.46cc of 7×10^-3 M every forty eight hours for twenty eight days while the "H" tumor received a dose of selenodiglutathione of 2.8cc of 7×10^-3 M every ninety six hours for twenty eight days. […] The control tumor, C, continued to increase in volume dramatically.

[3] = tested on: secondary superficial tumors; assay: Injection at site distant from the tumor; assay type: in vivo, rats; conditions: effective dosages injected at site distant from the tumor
Experimental: It has further been discovered that rats which are injected with effective dosages of GSSeSG at site distant from the tumor will still kill the cancer tumors.

[4] = target: T1, elongation factor 2 (EF-2) (Rattus norvegicus, UniProt P05197); conditions: cell-free system derived from rats; cited from earlier work
T1 construct: in a cell-free system derived solely from rats

[5] = tested on: Malignant Mouse Lymphoid Cells; conditions: intraperitoneal injections, mice previously inoculated with tumor cells, versus untreated control; cited from earlier work
EF-2 = EF-2 (Rattus norvegicus, UniProt P05197); conditions: in vitro amino acid incorporation; cited from earlier work
[6] = tested on: Human Breast Cancer Cells; conditions: parenteral administration, mice; cited from earlier work
[7] = tested on: DU-145 Human Prostate Carcinoma Cells; conditions: in vitro; cited from earlier work
[8] = tested on: DMBA-induced mammary tumorigenesis; conditions: cited from earlier work
[9] = 1 μg per gram of rat body weight
[10] = retinol alone or GSSeSG mixed with retinol, groups of ten rats

For `N[C@@H](CCC(=O)N[C@@H](CS[Se]SC[C@H](NC(=O)CC[C@H](N)C(=O)O)C(=O)NCC(=O)O)C(=O)NCC(=O)O)C(=O)O` [GSSeSG, selenodiglutathione], the “concentration up to which neoplastic cell division increases” value (human tumor cell lines; FIG. 1) was “up to 10^-6 M”, the “concentration at which neoplastic cells survive (purple solution obtained)” value (human tumor cell lines; MTT, six days incubation) was “less than 10^-6 M” and the “concentration inhibiting neoplastic cell division or protein synthesis (purple solution not obtained)” value (human tumor cell lines; MTT, six days incubation) was “at least 10^-5 M”. For the same molecule, the “number of Sister Chromatid Exchanges (inducible mutation)” value [1] was “low number”, the “effect on cancer cells” value [2, 9] was “substantial elimination of the cancer cells” and the “harm to the rats as indicated by bodyweight” value [2, 9] was “substantially no harm to the rats”. The mortality of rats ([2]; 2 μg of GSSeSG per gram of bodyweight, ten rats, seventy nine days) was “all but one of these specimens are dead”, the “tumor volume change, "L" tumor” value (rat mammary tumor; 1.46cc of 7×10^-3 M every forty eight hours for twenty eight days, FIG. 13) was “stopped growing” and the “tumor volume change, "H" tumor” value (rat mammary tumor; 2.8cc of 7×10^-3 M every ninety six hours for twenty eight days, FIG. 13) was “decreased in volume to a level significantly below the initial volume”. For the same molecule, the “detrimental effect to the animal” value (rat mammary tumor; 700 micrograms into central region of tumor, fifteen times over thirty days) was “without any detrimental effect”, the tumor size (rat mammary tumor; 700 micrograms into central region of tumor, fifteen times over thirty days, FIG. 12) was “decreased dramatically” and the “effect on tumors distant from the point of injection” value [3] was “disappearance of secondary superficial tumors”. The “effectiveness in inhibiting protein synthesis versus sodium selenite or oxidized glutathione” value [4] was “substantially more effective”, the “life span of the animals” value [5] was “increased the life span” and the tumor growth [5] was “inhibited the tumor growth”.
With `CC1=C(/C=C/C(C)=C/C=C/C(C)=C/CO)C(C)(C)CCC1` [retinol, reference compound] the “damage to the rats (bodyweight column)” value [2, 10] was “severe damage to the rats” and the effect on cancer [2, 10] was “effective in arresting the cancer”.
In the case of `O=[Se](O)O` [sodium selenite], the “concentration that can inhibit EF-2” value (EF-2) is listed as 11 µM, the “development of cancerous tumors” value [6] is listed as “completely inhibits” and the “growth of human prostate carcinoma cells” value [7] is listed as “inhibits the growth”. For the same molecule, the “tumorigenesis, high fat fed animals” value ([8]; high fat fed rats) was “did not respond as favorably” and the “tumorigenesis, low fat diets” value ([8]; rats on low fat diets) was “decrease tumorigenesis”.
